Earlier results, collected in patent US8449914B2, “Controlled release carvedilol compositions” (Egalet Ltd., priority 2002, dated 2013).
Like-named read-outs stand apart in the source and are kept apart here. Blank lines part the entries; values can stand above or below the compound they belong to.

Key:
beta-adrenoreceptor [1] = conditions: preclinical studies
alpha1-adrenoreceptor = conditions: IR formulation
beta-adrenoreceptor [2] = conditions: humans
[3] = not given; remark: listed apart in the source

mean apparent terminal elimination half-lives (in vivo): 5 to 9 h | plasma concentrations in poor metabolizers of debrisoquin compared to extensive metabolizers (in vivo): 2-3 fold
Compound: COc1ccccc1OCCNC[C@@H](O)COc1cccc2[nH]c3ccccc3c12 [R(+)-carvedilol]

potency for beta-blockade relative to carvedilol (beta-adrenoreceptor [1]): approximately 13 times
Compound: COc1cc(O)ccc1OCCNCC(O)COc1cccc2[nH]c3ccccc3c12 (centres unmarked) [4′-hydroxyphenyl metabolite, 4′-hydroxy carvedilol]

mean apparent terminal elimination half-lives (in vivo): 7 to 11 h
Compound: COc1ccccc1OCCNC[C@H](O)COc1cccc2[nH]c3ccccc3c12 [S(−)-carvedilol]

steady-state volume of distribution (in vivo): approximately 115 L | absorption in the large intestine, share of the total absorption (timed-release capsules, study by Nolte et al): approximately 10% | time after administration at which alpha-mediated vasodilatory effects are evident (alpha1-adrenoreceptor): ≤ 30 min | time after administration at which beta-blocking actions are evident (beta-adrenoreceptor [2]): one | solubility ([3]; 95% ethanol): sparingly soluble | solubility ([3]; dimethylsulfoxide): freely soluble | solubility ([3]; ethyl ether): slightly soluble | solubility ([3]; gastric fluid (simulated, TS, pH1.1)): practically insoluble | solubility ([3]; intestinal fluid (simulated, TS without pancreatin, pH 7.5)): practically insoluble | solubility ([3]; isopropanol): sparingly soluble | solubility ([3]; methanol): soluble | solubility ([3]; methylene chloride): soluble | solubility ([3]; water): practically insoluble
Compound: COc1ccccc1OCCNCC(O)COc1cccc2[nH]c3ccccc3c12 (racemic) [Carvedilol]
